Measurements as given in PubChem BioAssay (NCI).
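At the GI50, growth is halved. Definition used: TGI = concentration required for complete inhibition of growth.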

Legend:
Assay in all cases: inhibition of tumour cell growth, NCI panel, 384-well format
OVCAR-3 ovarian = test system: OVCAR-3 ovarian
UO-31 renal = test system: UO-31 renal
M14 melanoma = test system: M14 melanoma
ACHN renal = test system: ACHN renal
NCI-H460 NSCLC = test system: NCI-H460 NSCLC
SK-MEL-28 melanoma = test system: SK-MEL-28 melanoma
EKVX NSCLC = test system: EKVX NSCLC
HCC-2998 colon = test system: HCC-2998 colon
MDA-MB-231 breast = test system: MDA-MB-231 breast
OVCAR-4 ovarian = test system: OVCAR-4 ovarian
MALME-3M melanoma = test system: MALME-3M melanoma
DU-145 prostate = test system: DU-145 prostate
786-0 renal = test system: 786-0 renal
K-562 leukemia = test system: K-562 leukemia
OVCAR-8 ovarian = test system: OVCAR-8 ovarian
SR leukemia = test system: SR leukemia
TK-10 renal = test system: TK-10 renal
SNB-75 CNS = test system: SNB-75 CNS
A498 renal = test system: A498 renal
HT29 colon = test system: HT29 colon
U251 glioblastoma = test system: U251 glioblastoma
RXF 393 renal = test system: RXF 393 renal
SNB-19 CNS = test system: SNB-19 CNS
OVCAR-5 ovarian = test system: OVCAR-5 ovarian
SW-620 colon = test system: SW-620 colon
T-47D breast = test system: T-47D breast
HCT-15 colon = test system: HCT-15 colon
A549 NSCLC = test system: A549 NSCLC
SF-539 CNS = test system: SF-539 CNS
UACC-257 melanoma = test system: UACC-257 melanoma
NCI-H226 lung = test system: NCI-H226 lung
HL-60(TB) leukemia = test system: HL-60(TB) leukemia
MDA-MB-468 breast = test system: MDA-MB-468 breast
NCI/ADR-RES ovarian = test system: NCI/ADR-RES ovarian
NCI-H522 lung = test system: NCI-H522 lung
RPMI-8226 leukemia = test system: RPMI-8226 leukemia
COLO 205 colon = test system: COLO 205 colon
MCF7 breast = test system: MCF7 breast
IGROV1 ovarian = test system: IGROV1 ovarian
NCI-H322M lung = test system: NCI-H322M lung
HOP-62 NSCLC = test system: HOP-62 NSCLC
HS 578T breast = test system: HS 578T breast
NCI-H23 lung = test system: NCI-H23 lung
KM12 colon = test system: KM12 colon
SF-268 CNS = test system: SF-268 CNS
SF-295 CNS = test system: SF-295 CNS
LOX IMVI melanoma = test system: LOX IMVI melanoma
MDA-MB-435 melanoma = test system: MDA-MB-435 melanoma
SN12C renal = test system: SN12C renal
PC-3 prostate = test system: PC-3 prostate
HOP-92 NSCLC = test system: HOP-92 NSCLC
CCRF-CEM leukemia = test system: CCRF-CEM leukemia
MOLT-4 leukemia = test system: MOLT-4 leukemia
CAKI-1 renal = test system: CAKI-1 renal
SK-OV-3 ovarian = test system: SK-OV-3 ovarian
BT-549 breast = test system: BT-549 breast
UACC-62 melanoma = test system: UACC-62 melanoma

CCNC(=O)c1noc(-c2cc(C(C)C)c(O)cc2O)c1-c1ccc(CN2CCOCC2)cc1
GI50 (OVCAR-3 ovarian): < 0.01 µM
TGI (OVCAR-3 ovarian): < 0.01 µM
GI50 (UO-31 renal): 0.0494 µM
TGI (UO-31 renal): > 100 µM
GI50 (M14 melanoma): < 0.01 µM
TGI (M14 melanoma): 11.2 µM
GI50 (ACHN renal): < 0.01 µM
TGI (ACHN renal): 15.5 µM
GI50 (NCI-H460 NSCLC): < 0.01 µM
TGI (NCI-H460 NSCLC): < 0.01 µM
GI50 (SK-MEL-28 melanoma): < 0.01 µM
TGI (SK-MEL-28 melanoma): 0.0428 µM
GI50 (EKVX NSCLC): < 0.01 µM
TGI (EKVX NSCLC): 1.03 µM
GI50 (HCC-2998 colon): < 0.01 µM
TGI (HCC-2998 colon): < 0.01 µM
GI50 (MDA-MB-231 breast): < 0.01 µM
TGI (MDA-MB-231 breast): < 0.01 µM
GI50 (OVCAR-4 ovarian): < 0.01 µM
TGI (OVCAR-4 ovarian): < 0.01 µM
GI50 (MALME-3M melanoma): < 0.01 µM
TGI (MALME-3M melanoma): < 0.01 µM
GI50 (DU-145 prostate): < 0.01 µM
TGI (DU-145 prostate): < 0.01 µM
GI50 ([…]-0 renal): < 0.01 µM
TGI (786-0 renal): 0.0304 µM
GI50 (K-562 leukemia): < 0.01 µM
TGI (K-562 leukemia): < 0.01 µM
GI50 (OVCAR-8 ovarian): < 0.01 µM
TGI (OVCAR-8 ovarian): < 0.01 µM
GI50 (SR leukemia): < 0.01 µM
TGI (SR leukemia): < 0.01 µM
GI50 (TK-10 renal): 0.0244 µM
TGI (TK-10 renal): 0.081 µM
GI50 (SNB-75 CNS): < 0.01 µM
TGI (SNB-75 CNS): < 0.01 µM
GI50 (A498 renal): < 0.01 µM
TGI (A498 renal): 3.88 µM
GI50 (HT29 colon): 0.0859 µM
TGI (HT29 colon): 10.4 µM
GI50 (U251 glioblastoma): < 0.01 µM
TGI (U251 glioblastoma): 0.0297 µM
GI50 (RXF 393 renal): < 0.01 µM
TGI (RXF 393 renal): < 0.01 µM
GI50 (SNB-19 CNS): 0.0131 µM
TGI (SNB-19 CNS): 0.0637 µM
GI50 (OVCAR-5 ovarian): 0.0169 µM
TGI (OVCAR-5 ovarian): 0.0761 µM
GI50 (SW-620 colon): < 0.01 µM
TGI (SW-620 colon): < 0.01 µM
GI50 (T-47D breast): < 0.01 µM
TGI (T-47D breast): 0.0448 µM
GI50 (HCT-15 colon): < 0.01 µM
TGI (HCT-15 colon): 10.4 µM
GI50 (A549 NSCLC): < 0.01 µM
TGI (A549 NSCLC): 10.7 µM
GI50 (SF-539 CNS): < 0.01 µM
TGI (SF-539 CNS): < 0.01 µM
GI50 (UACC-257 melanoma): < 0.01 µM
TGI (UACC-257 melanoma): 0.42 µM
GI50 (NCI-H226 lung): < 0.01 µM
TGI (NCI-H226 lung): 11.7 µM
GI50 (HL-60(TB) leukemia): < 0.01 µM
TGI (HL-60(TB) leukemia): < 0.01 µM
GI50 (MDA-MB-468 breast): < 0.01 µM
TGI (MDA-MB-468 breast): < 0.01 µM
GI50 (NCI/ADR-RES ovarian): 0.0669 µM
TGI (NCI/ADR-RES ovarian): 0.269 µM
GI50 (NCI-H522 lung): < 0.01 µM
TGI (NCI-H522 lung): 0.0236 µM
GI50 (RPMI-8226 leukemia): < 0.01 µM
TGI (RPMI-8226 leukemia): < 0.01 µM
GI50 (COLO 205 colon): 0.0207 µM
TGI (COLO 205 colon): 0.157 µM
GI50 (MCF7 breast): < 0.01 µM
TGI (MCF7 breast): 0.0112 µM
GI50 (IGROV1 ovarian): 0.0121 µM
TGI (IGROV1 ovarian): 0.037 µM
GI50 (NCI-H322M lung): < 0.01 µM
TGI (NCI-H322M lung): 12.2 µM
GI50 (HOP-62 NSCLC): < 0.01 µM
TGI (HOP-62 NSCLC): 0.0131 µM
GI50 (HS 578T breast): < 0.01 µM
TGI (HS 578T breast): < 0.01 µM
GI50 (NCI-H23 lung): < 0.01 µM
TGI (NCI-H23 lung): < 0.01 µM
GI50 (KM12 colon): < 0.01 µM
TGI (KM12 colon): 0.013 µM
GI50 (SF-268 CNS): < 0.01 µM
TGI (SF-268 CNS): 10.7 µM
GI50 (SF-295 CNS): 0.0247 µM
TGI (SF-295 CNS): 0.115 µM
GI50 (LOX IMVI melanoma): < 0.01 µM
TGI (LOX IMVI melanoma): < 0.01 µM
GI50 (MDA-MB-435 melanoma): < 0.01 µM
TGI (MDA-MB-435 melanoma): 14.9 µM
GI50 (SN12C renal): < 0.01 µM
TGI (SN12C renal): 0.028 µM
GI50 (PC-3 prostate): < 0.01 µM
TGI (PC-3 prostate): 0.0296 µM
GI50 (HOP-92 NSCLC): < 0.01 µM
TGI (HOP-92 NSCLC): < 0.01 µM
GI50 (CCRF-CEM leukemia): < 0.01 µM
TGI (CCRF-CEM leukemia): < 0.01 µM
GI50 (MOLT-4 leukemia): < 0.01 µM
TGI (MOLT-4 leukemia): < 0.01 µM
GI50 (CAKI-1 renal): < 0.01 µM
TGI (CAKI-1 renal): 12.6 µM
GI50 (SK-OV-3 ovarian): < 0.01 µM
TGI (SK-OV-3 ovarian): 11 µM
GI50 (BT-549 breast): < 0.01 µM
TGI (BT-549 breast): < 0.01 µM
GI50 (UACC-62 melanoma): < 0.01 µM
TGI (UACC-62 melanoma): < 0.01 µM
